Peptide text beside a SMILES is read from it.

The target in test [1] is T1, rNOSIP (Homo sapiens, UniProt Q9Y314).
T1 construct: made in house; host or cells: E. coli BL21 (DE3)
T1 sequence (Q9Y314 with tags, fused parts or gaps): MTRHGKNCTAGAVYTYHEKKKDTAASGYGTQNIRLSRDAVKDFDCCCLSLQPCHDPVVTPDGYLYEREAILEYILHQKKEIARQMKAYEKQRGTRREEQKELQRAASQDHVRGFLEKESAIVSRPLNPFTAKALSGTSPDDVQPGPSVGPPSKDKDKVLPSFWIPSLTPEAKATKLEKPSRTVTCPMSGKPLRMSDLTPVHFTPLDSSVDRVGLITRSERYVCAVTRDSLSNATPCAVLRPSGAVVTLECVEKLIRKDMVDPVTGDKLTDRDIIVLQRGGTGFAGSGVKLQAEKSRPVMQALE
The test can be described thus: Isothermal titration calorimetry (ITC) of rNOSIP with small molecules / 18 mer iNOS peptide (PP2). It counts as binding. Conditions: for Fold Change (KD): ITC KD relative to iNOS-Peptide2 = 1; for SM binding affinity with NOSIP, hierarchy: ITC, rank order. The protocol:
The 18 mer iNOS peptide (PP2) and small molecules were used for physical association of molecules in calorimetric analysis. The molecular association leads to thermodynamics changes such as Gibb's free energy change (ΔG), entropy change (ΔS), enthalpy change (ΔH) and number of binding sites (N) in interacting solution were investigated by isothermal calorimetry MICROCAL PEQ (Malvern) at 25° C. […] The experiment consisted of multiple injections and each injection contained 1.5 μl of binding solution (recombinant NOSIP solution) with 120 second spacing time between subsequent injections. Sequential titrations were carried out and the sample solution was continuously stirred at 270 rpm by the rotating paddle attached to the syringe needle. Multiple injections of NOSIP made into the sample cell containing interacting solution of peptide and small molecules. The titration curves were analyzed using the analysis software provided with the calorimeter.
The 18 mer iNOS peptide (PP2) and five small molecules were used to analyze physical association in calorimetric analysis. The molecular association leads to thermodynamics changes such as Gibb's free energy change (ΔG), entropy change (ΔS), enthalpy change (ΔH) and number of binding sites (N) in interacting solution were investigated by isothermal calorimetry MICROCAL PEQ (Malvern) at 25° C. […] The experiment consisted of multiple injections and each injection contained 1.5 μl of binding solution with 120 second spacing time between subsequent injections. Sequential titrations were carried out and the sample solution was continuously stirred at 270 rpm by the rotating paddle attached to the syringe needle. Multiple injections of NOSIP made into the sample cell containing interacting solution of peptide and small molecules. The titration curves were analyzed using the analysis software provided with the calorimeter.

The target of test [2] is T2, iNOS-NOSIP protein interaction (Homo sapiens, UniProt Q9Y314).
T2 construct: made in house; host or cells: E. coli BL21 (DE3)
T2 sequence (Q9Y314 with tags, fused parts or gaps): T1 sequence (Q9Y314 with tags, fused parts or gaps)
Nature of the test: SPR: inhibition of rNOSIP association with immobilized recombinant iNOS by iNOS peptides / small molecules. The class given is binding. Conditions: for inhibition hierarchy of iNOS-NOSIP protein interaction: SPR, rank order; for kon / Kd: analyte rNOSIP alone or + peptide/small molecule, ligand r iNOS, 20° C.; for kon: 1:1 Langmuir, read-out: Ka; for Kd: Kd/Ka; for inhibition of binding of NOSIP with iNOS ligand by small molecules: rNOSIP 250 nM, small molecules 1 uM, SPR (FIG. 4); for inhibition of iNOS-NOSIP protein interaction by iNOS derived peptides: iNOS peptides 250 nM, proteins 125 nM, SPR (FIG. 2(a)). As to the method:
Four different iNOS peptides were synthesized commercially by China peptides and iNOS peptides were used for molecular interaction studies with immobilized recombinant iNOS purified protein. The iNOS peptides mediated inhibition of rNOSIP and riNOS protein association in Bio-Rad XPR 36 surface plasmon resonance biosensor instrument. […] 250 nM of iNOS peptides was used for inhibition assay with immobilized ligand(recombinant iNOS) in SPR analysis. Similar condition and concentration of small molecules were used for inhibition of recombinant protein association with immobilized ligand. […] The rNOSIP protein was incubated with iNOS derived peptide/small molecules for 30 minutes in ice for inhibition assay before the SPR application in our study. The molecular interaction was carried out at 20° C. and kinetic parameters were determined, after fitting the association and dissociation curves to a 1:1 (Langmuir)-binding model. An activated channel without immobilized ligand was used to evaluate nonspecific binding. The response curves were also recorded on control surfaces. Results were calculated after subtraction of the control values using the ProteOn Manager software.
The collected sensorgram data were processed by reference subtraction using double-referencing with the in-line blank buffer. The integrated ProteOn Manager software was used to fit the data with the Langmuir model describing a 1:1 binding stoichiometry. Ka is the association rate constant, Kd is the dissociation rate constant, and KD is the equilibrium dissociation constant, defined by the Kd/Ka ratio for the analytes-ligand binding.
The five small molecules bind with NOSIP and inhibit the association of recombinant NOSIP and recombinant iNOS. The rNOSIP protein was incubated with iNOS derived peptide or small molecules for 30 minutes in ice prior to SPR application. The molecular interaction was carried out at 20° C. and kinetic parameters were determined, after fitting the association and dissociation curves to a 1:1 (Langmuir)-binding model. An activated channel without immobilized ligand (recombinant iNOS) was used to evaluate nonspecific binding. The response curves were also recorded on control surfaces. Results were calculated after subtraction of the control values using the ProteOn Manager software.
The collected sensorgram data were processed by reference subtraction using double-referencing with the in-line blank buffer. The integrated ProteOn
Manager software was used to fit the data with the Langmuir model describing a 1:1 binding stoichiometry. Ka is the association rate constant, Kd is the dissociation rate constant, and KD is the equilibrium dissociation constant, defined by the Kd/Ka ratio for the analytes—ligand binding.

Setting [3] is: ITC 25° C., small molecule/peptide in cell, NOSIP in syringe.
Where [4] appears, read: 10 μM iNOS peptide in the chamber, 150 μM rNOSIP in syringe, 25° C. (FIG. 3).

With `Cc1ccc(-c2nnn(CC(=O)N(Cc3ccco3)C(C(=O)NC(C)(C)C)c3ccc(O)cc3)n2)cc1` (stereo not drawn) [MCULE-8469877005, N-tert-butyl-2-{N-[(furan-2-yl)methyl]-2-[5-(4-methylphenyl)-2H-1,2,3,4-tetrazol-2-yl]acetamido}-2-(4-hydroxyphenyl) acetamide], in test [1] (ITC 25° C.), the “ΔG” value is -8.56 kcal/mol, the “ΔH” value was -29.3 ± 1.12 kcal/mol and the “−TΔS” value was determined as 20.8 kcal/mol. Also, in test [1] (setting [3]), binding was characterised by a dissociation constant (Kd) of 535 ± 80.8 nM and the “N (Sites)” value worked out at 0.794. Moreover, in test [1], the “Fold Change (KD)” value amounted to 0.976 and the “SM binding affinity with NOSIP, hierarchy” value (“SM binding affinity” below) is given as “CC4>CC11>CC6>CC5>CC13>Peptide 2 (iNOS)”. In test [2], the “inhibition hierarchy of iNOS-NOSIP protein interaction” value (“inhibition hierarchy” below) was “CC4>CC11>CC6>CC5>CC13>iNOS Peptide 2”, the kon came out at 0.822 M⁻¹ s⁻¹, the Kd is 588000 nM and the “inhibition of binding of NOSIP with iNOS ligand by small molecules” value (“inhibition of binding of NOSIP” for short) was “inhibit the binding of NOSIP with iNOS ligand”.
In the case of “PP1: iNOS derived peptide, SEQ ID No: 25 (TGDELIFATKQAWR; Human)”, the “inhibition of iNOS-NOSIP protein interaction by iNOS derived peptides” value (shortened to “inhibition … by iNOS derived peptides”) in test [2] was “inhibited”; in test [2] (listed as Peptide-1) it was “less efficient in inhibiting interaction between iNOS and NOSIP”.
As to “PP4: iNOS derived peptide, SEQ ID No: 28 (NLQVFDARSCSTAREMFEHICRHVRYSTNNGNI; Human)”, the “inhibition … by iNOS derived peptides” value is “inhibited” in test [2]; “less efficient in inhibiting interaction between iNOS and NOSIP” in test [2] (listed as peptide-4).
For the molecule `NS(=O)(=O)c1ccc(CCNC(=O)CCCn2c(SCC(=O)c3ccc(Cl)c(Cl)c3)nc3ccsc3c2=O)cc1` [MCULE-3765839647, 4-(2-{[2-(3,4-dichlorophenyl)-2-oxoethyl]sulfanyl}-4-oxo-3H,4H-thieno[3,2-d]pyrimidin-3-yl)-N-[2-(4-sulfamoylphenyl)ethyl]butanamide], in test [1] (ITC 25° C.), the “ΔG” value is -7.5 kcal/mol, the “ΔH” value was -27.3 ± 1.11 kcal/mol and the “−TΔS” value was determined as 19.8 kcal/mol. In addition, in test [1] (setting [3]), the dissociation constant Kd came to 524 ± 64.9 nM and the “N (Sites)” value turned out to be 0.989. In addition, in test [1], the “Fold Change (KD)” value is recorded as 0.956 and the “SM binding affinity” value is given as “CC4>CC11>CC6>CC5>CC13>Peptide 2 (iNOS)”. In addition, in test [2], the “inhibition hierarchy” value is recorded as “CC4>CC11>CC6>CC5>CC13>iNOS Peptide 2”, the kon was determined as 0.807 M⁻¹ s⁻¹, the dissociation constant (Kd) worked out at 704000 nM and the “inhibition of binding of NOSIP” value is reported as “inhibit the binding of NOSIP with iNOS ligand”.
For the molecule `CC[C@H](C)[C@H](NC(=O)[C@H](CCCCN)NC(=O)[C@H](C)NC(=O)[C@H](CCC(=O)O)NC(=O)[C@H](CCCCN)NC(=O)[C@H](Cc1ccccc1)NC(=O)[C@H](CO)NC(=O)CNC(=O)[C@H](Cc1ccc(O)cc1)NC(=O)[C@H](Cc1ccc(O)cc1)NC(=O)[C@H](CCC(N)=O)NC(=O)[C@@H](N)CC(N)=O)C(=O)N[C@@H](CCC(=O)O)C(=O)N[C@@H](CCC(=O)O)C(=O)N[C@@H](Cc1c[nH]cn1)C(=O)N[C@@H](CC(C)C)C(=O)N[C@@H](C)C(=O)N[C@@H](CCCNC(=N)N)C(=O)O` [iNOS-Peptide2] (H-NQYYGSFKEAKIEEHLAR-OH; N-terminus and C-terminus assumed), in test [1] (setting [4]), the Kd was 493 ± 63.2 nM, the “ΔG” value is -8.61 kcal/mol, the “ΔH” value is -9.07 ± 0.251 kcal/mol and the “−TΔS” value came to 0.459 kcal/mol. Further, in test [1] (ITC 25° C.), the “ΔG” value is -8.54 kcal/mol, the “ΔH” value was -8.44 ± 0.271 kcal/mol and the “−TΔS” value is -0.10 kcal/mol. Moreover, the “N (Sites)” value in test [1] (setting [3]) was 1.09. For the same molecule, in test [1], the “Fold Change (KD)” value is listed as 1 and the “SM binding affinity” value is on record as “CC4>CC11>CC6>CC5>CC13>Peptide 2 (iNOS)”. Besides, in test [2] (SPR KD relative to rNOSIP + iNOS peptide2 = 1), the “Fold Change (KD)” value was 1. In addition, in test [2], the “inhibition hierarchy” value is reported as “CC4>CC11>CC6>CC5>CC13>iNOS Peptide 2” and the kon came out at 536 M⁻¹ s⁻¹. Further, the “inhibition … by iNOS derived peptides” value in test [2] (listed as PP2) is “inhibited”. Besides, the “inhibition … by iNOS derived peptides” value in test [2] (listed as PP-2) was “block significantly interaction between recombinant iNOS and NOSIP”.
In the case of `CCCCN=c1scc(-c2ccc(O)c(C(N)=O)c2)n1N=Cc1cc(Br)c(O)c(OC)c1` [MCULE-8395438746, 5-(3-{[(3-bromo-4-hydroxy-5-methoxyphenyl)methylidene]amino}-2-(butylimino)-2,3-dihydro-1,3-thiazol-4-yl)-2-hydroxybenzamide], in test [1] (ITC 25° C.), the “ΔG” value was -8.55 kcal/mol, the “ΔH” value is -28.5 ± 0.694 kcal/mol and the “−TΔS” value was determined as 20.0 kcal/mol. For the same molecule, in test [1] (setting [3]), the dissociation constant (Kd) is 542 ± 54.9 nM and the “N (Sites)” value stood at 0.864. Besides, in test [1], the “Fold Change (KD)” value came to 0.989 and the “SM binding affinity” value is “CC4>CC11>CC6>CC5>CC13>Peptide 2 (iNOS)”. In addition, in test [2], the “inhibition hierarchy” value is on record as “CC4>CC11>CC6>CC5>CC13>iNOS Peptide 2”, the kon worked out at 0.835 M⁻¹ s⁻¹, the Kd was found to be 543000 nM and the “inhibition of binding of NOSIP” value is “inhibit the binding of NOSIP with iNOS ligand”.
Consider “PP3: iNOS derived peptide, SEQ ID No: 27 (GWKPKYGRFDVVPLVLQANGRDPELFEIPPDLVL; Human)”, for which the “inhibition … by iNOS derived peptides” value in test [2] was “inhibited”; in test [2] (listed as Peptide3), “less efficient in inhibiting interaction between iNOS and NOSIP”.
